Consider 1 substance from patent publication US20200102349A1, “PEPTIDE REAGENTS AND METHODS FOR DETECTION AND TARGETING OF DYSPLASIA, EARLY CANCER AND CANCER” (THE REGENTS OF THE UNIVERSITY OF MICHIGAN, priority 2014, published 2020).

The test system of one assay is HT29 cells. Nature of the assay: Apparent dissociation constant on flow cytometry. Type of assay: binding, human. The following applies: 4° C., 1 hour. On the procedure:
We measured the apparent dissociation constant of the peptide to HT29 cells as an assessment of binding affinity. QRH*-Cy5.5 was serially diluted in PBS at concentrations of 0, 10, 25, 50, 75, 100, 125, 150 and 200 nM. HT29 cells (˜10^5) were incubated with QRH*-Cy5.5 at 4° C. for 1 hour, washed with cold PBS, and the mean fluorescence intensities were measured on flow cytometry. The equilibrium dissociation constant kd=1/ka was calculated by performing a least squares fit of the data to the non-linear equation […]. I0 and Imax are the initial and maximum fluorescence intensities, corresponding to no peptide and at saturation, respectively, and [X] represents the concentration of the bound peptide [Thomas et al., Clin Exp Metastasis, 26:105-119 (2009)]. Origin 6.1 data analysis software (OriginLab Corp) was used to calculate kd.
(A flow cytometer gives signals particle by particle.)

Another assay concerns the target EGFR (Homo sapiens, UniProt P00533). Nature of the assay: Co-localization of EGFR peptide and anti-EGFR antibody binding on colorectal cancer cells. It counts as cell-based. Also on record: endogenous in cells; host or cells: HT29 human colorectal adenocarcinoma cells (ATCC). On the procedure: We evaluated co-localization of binding by the QRH*-Cy5.5 peptide and a validated anti-EGFR antibody on cells that overexpress EGFR. A panel of colorectal cancer cells (HT29, SW480, and SW620) was grown on cover slips to […]. QRH*-Cy5.5 at 5 μM concentration was incubated with each cell line for 1 hour at 4° C. The cells were washed and fixed with 4% PFA for 5 min. The cells were incubated with primary anti-EGFR antibody and secondary AF488-labeled antibody, as described previously. We applied the peptide rather than the antibody to the cells first because the peptide has a lower affinity and in the lower concentration (<10 μM) is less likely to interfere with antibody binding. Confocal fluorescence images were collected with FITC, Cy5.5, and DAPI filters using a 63× oil-immersion objective.

A further assay relates to SW480 cells. Nature of the assay: Peptide binding to colorectal cancer cells on confocal microscopy (SW480). Type of assay: cell-based, human. Particulars: SW480, 5 μM, 3 min. On the procedure:
(§1) HT29, SW480, and SW620 cells (˜10^3) were grown on cover slips to ˜80% confluence. The cells were washed 1× with PBS and incubated with 5 μM of QRH*-Cy5.5 and PEH*-Cy5.5 for 3 min at RT. The cells were then washed 3× in PBS, fixed with 4% paraformaldehyde (PFA) for 5 min, washed 1× with PBS, and then mounted on glass slides with ProLong Gold reagent containing DAPI (Invitrogen). Confocal fluorescence images were collected with FITC, Cy5.5, and DAPI filters (Leica Inverted SPSX Confocal Microscope System) using a 63× oil-immersion objective. Fluorescence intensities from 5 cells in 2 independent images were quantified using custom Matlab (Mathworks) software.
(§2) We assessed binding of QRH*-Cy5.5 to a panel of colorectal cancer cells that vary in EGFR expression level on confocal microscopy. We observed binding of QRH*-Cy5.5 to the surface (arrows) of HT29, SW480, and SW620 cells with decreasing strength, FIG. 3A-C, scale bars 30 μm. […] Results are an average of 10 cells from 2 independent images. EGFR expression is shown on Western blot, FIG. 3H.

For assay [1], the system named is dysplastic crypts in polyps. Description: Immunofluorescence on mouse colon polyp specimens. Particulars: OCT embedded polyp specimens. On the procedure: Specimens of flat dysplasia in mouse colon were formalin fixed and processed as described above. Specimens of polypoid dysplasia in mouse colon were frozen in OCT (Sakura Finetek), cut in 10 μm sections, and incubated with 1:1000 dilution of primary goat anti-mouse anti-EGFR antibody and AF488-labeled secondary antibody, as described previously. The sections were washed 3× with PBS, fixed with 4% PFA for 10 min, washed with PBS 1×, and mounted with Prolong Gold reagent containing DAPI (Invitrogen). Confocal microscopy images were collected with DAPI, AF488, and Cy5.5 filters. Adjacent sections were processed for histology (H&E).

A further assay has as its system SW620 cells. Description: Peptide binding to colorectal cancer cells on confocal microscopy (SW620). It counts as cell-based, human. The following applies: SW620, 5 μM, 3 min. On the procedure:
as §1, §2

Consider “QRHKPRE (SEQ ID NO: 1) with Cy5.5 fluorophore attached via a GGGSK linker (SEQ ID NO: 18) on the C-terminus [QRH*-Cy5.5]”, for which the Kd in the assay with HT29 cells was 50 nM. The “co-localization with AF488-labeled anti-EGFR antibody” value at EGFR (HT29 cells, 5 μM) is given as “co-localize”. At EGFR (SW620 cells), the “binding on confocal microscopy” value is “Minimal binding”. The “fluorescence intensity of binding (mean±std)” value with SW480 cells was 2.4±0.4; with SW620 cells it was 1.0±0.3. For the same substance, the “fluorescence for binding to dysplastic crypts” value in assay [1] is recorded as “increased fluorescence”.
